Test results taken from ChEMBL document CHEMBL1201862, “PubChem BioAssay data set” (2004).
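Where inhibition never reached the appropriate level, the endpoint shown equals the highest concentration tested. Otherwise, values were interpolated linearly from a five-concentration, 48-hour dose response in 96-well plates. At the GI50, growth is halved.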 Active and inactive are the calls of the source. No stated cut-off is given here; in the data, active = GI50 up to about 1.1 µM and inactive = higher.

Key:
Test in all cases: NCI anticancer screen, dose series, 48 h
KM12 = test system: KM12
TK-10 = test system: TK-10
IGROV-1 = test system: IGROV-1
A498 = test system: A498
SNB-75 = test system: SNB-75
RXF 393 = test system: RXF 393
HCT-116 = test system: HCT-116
U-251 = test system: U-251
HOP-92 = test system: HOP-92
CCRF-CEM = test system: CCRF-CEM
SK-MEL-2 = test system: SK-MEL-2
M14 = test system: M14
NCI-H23 = test system: NCI-H23
OVCAR-8 = test system: OVCAR-8
ACHN = test system: ACHN
SK-MEL-28 = test system: SK-MEL-28
HOP-62 = test system: HOP-62
SW-620 = test system: SW-620
SF-295 = test system: SF-295
UACC-62 = test system: UACC-62

Row | Structure (SMILES) | GI50 (KM12) | GI50 (TK-10) | GI50 (IGROV-1) | GI50 (A498) | GI50 (SNB-75) | GI50 (RXF 393) | GI50 (HCT-116) | GI50 (U-251) | GI50 (HOP-92) | GI50 (CCRF-CEM) | GI50 (SK-MEL-2) | GI50 (M14) | GI50 (NCI-H23) | GI50 (OVCAR-8) | GI50 (ACHN) | GI50 (SK-MEL-28) | GI50 (HOP-62) | GI50 (SW-620) | GI50 (SF-295) | GI50 (UACC-62)
1 | CC(=O)OC1/C=C(\C)C(OC(C)=O)C/C=C(/C)CCC2C(/C=C/C1=O)C2(C)C (stereo not given) | > 100 µM (inactive) | 64.7 µM (inactive) | > 100 µM (inactive) | > 100 µM (inactive) | 31.2 µM (inactive) | 79.4 µM (inactive) | > 100 µM (inactive) | > 100 µM (inactive) | 42.2 µM (inactive) | > 100 µM (inactive) | > 100 µM (inactive) | > 100 µM (inactive) | > 100 µM (inactive) | > 100 µM (inactive) | > 100 µM (inactive) | > 100 µM (inactive) | 92.5 µM (inactive) | > 100 µM (inactive) | 91 µM (inactive) | > 100 µM (inactive)
2 | NC(=O)c1ccccc1NC(=O)C(=O)C(c1cnc2ccc([N+](=O)[O-])cc2n1)[N+](=O)[O-] (stereo not given) | 54.6 µM (inactive) | > 100 µM (inactive) | > 100 µM (inactive) | > 100 µM (inactive) | > 100 µM (inactive) | > 100 µM (inactive) | 87.7 µM (inactive) | > 100 µM (inactive) | > 100 µM (inactive) | 39.2 µM (inactive) | > 100 µM (inactive) | > 100 µM (inactive) | > 100 µM (inactive) | > 100 µM (inactive) | 23.5 µM (inactive) | > 100 µM (inactive) | > 100 µM (inactive) | > 100 µM (inactive) | > 100 µM (inactive) | > 100 µM (inactive)
3 | Cc1ccccc1N1C(=O)C2C=CC(n3[nH]c(=O)n(Cc4ccccc4)c3=O)CC2C1=O (stereo not given) | > 100 µM (inactive) | > 100 µM (inactive) | > 100 µM (inactive) | > 100 µM (inactive) | 70 µM (inactive) | > 100 µM (inactive) | > 100 µM (inactive) | > 100 µM (inactive) | > 100 µM (inactive) | > 100 µM (inactive) | > 100 µM (inactive) | > 100 µM (inactive) | > 100 µM (inactive) | > 100 µM (inactive) | > 100 µM (inactive) | > 100 µM (inactive) | > 100 µM (inactive) | > 100 µM (inactive) | > 100 µM (inactive) | > 100 µM (inactive)
4 | N#CC1(c2nc3ccccc3o2)C(=O)C(=O)N(C2C3CC4CC(C3)CC2C4)C(=O)C1=O (stereo not given) | > 100 µM (inactive) | > 100 µM (inactive) | > 100 µM (inactive) | > 100 µM (inactive) | > 100 µM (inactive) | > 100 µM (inactive) | > 100 µM (inactive) | > 100 µM (inactive) | 84.9 µM (inactive) | 64.9 µM (inactive) | > 100 µM (inactive) | > 100 µM (inactive) | > 100 µM (inactive) | > 100 µM (inactive) | > 100 µM (inactive) | > 100 µM (inactive) | > 100 µM (inactive) | > 100 µM (inactive) | > 100 µM (inactive) | > 100 µM (inactive)
5 | CS(=O)(=O)c1n[nH]c2nc(O)nc(O)c12 | > 10 µM (inactive) | > 10 µM (inactive) | > 10 µM (inactive) | > 10 µM (inactive) | > 10 µM (inactive) | > 10 µM (inactive) | > 10 µM (inactive) | > 10 µM (inactive) | > 10 µM (inactive) | > 10 µM (inactive) | > 10 µM (inactive) | > 10 µM (inactive) | > 10 µM (inactive) | > 10 µM (inactive) | > 10 µM (inactive) | > 10 µM (inactive) | > 10 µM (inactive) | > 10 µM (inactive) | > 10 µM (inactive) | > 10 µM (inactive)
6 | C=CC[N+]12CN3CN(CN(C3)C1)C2 | 29 µM (inactive) | 22.6 µM (inactive) | 27.4 µM (inactive) | 32.8 µM (inactive) | 25.1 µM (inactive) | 18.5 µM (inactive) | 19 µM (inactive) | 31.9 µM (inactive) | 23.8 µM (inactive) | 5.83 µM (inactive) | 42.1 µM (inactive) | 25.8 µM (inactive) | 24.2 µM (inactive) | 24 µM (inactive) | 21.3 µM (inactive) | 21.3 µM (inactive) | > 100 µM (inactive) | 5.94 µM (inactive) | > 100 µM (inactive) | 27.4 µM (inactive)
7 | c1ccc2c(c1)nnn2CNc1ccc(N2CCOCC2)cc1 | > 100 µM (inactive) | > 100 µM (inactive) | > 100 µM (inactive) | > 100 µM (inactive) | > 100 µM (inactive) | > 100 µM (inactive) | > 100 µM (inactive) | > 100 µM (inactive) | > 100 µM (inactive) | > 100 µM (inactive) | > 100 µM (inactive) | > 100 µM (inactive) | > 100 µM (inactive) | > 100 µM (inactive) | 67.3 µM (inactive) | > 100 µM (inactive) | > 100 µM (inactive) | > 100 µM (inactive) | > 100 µM (inactive) | > 100 µM (inactive)
8 | CCOc1ccc(NC(=O)C(=O)CC(=O)c2c(C)[n+]([O-])c3ccccc3[n+]2[O-])cc1 | > 100 µM (inactive) | > 100 µM (inactive) | > 100 µM (inactive) | > 100 µM (inactive) | > 100 µM (inactive) | > 100 µM (inactive) | > 100 µM (inactive) | > 100 µM (inactive) | > 100 µM (inactive) | > 100 µM (inactive) | > 100 µM (inactive) | > 100 µM (inactive) | > 100 µM (inactive) | > 100 µM (inactive) | > 100 µM (inactive) | > 100 µM (inactive) | > 100 µM (inactive) | > 100 µM (inactive) | > 100 µM (inactive) | > 100 µM (inactive)
9 | COc1ccc(OC)c(/C=C/NC=O)c1 | > 100 µM (inactive) | > 100 µM (inactive) | > 100 µM (inactive) | > 100 µM (inactive) | > 51.6 µM (inactive) | > 100 µM (inactive) | > 100 µM (inactive) | > 100 µM (inactive) | > 100 µM (inactive) | > 100 µM (inactive) | > 100 µM (inactive) | > 100 µM (inactive) | > 100 µM (inactive) | > 100 µM (inactive) | > 100 µM (inactive) | > 100 µM (inactive) | > 100 µM (inactive) | > 54.5 µM (inactive) | > 100 µM (inactive) | > 100 µM (inactive)
10 | COC(=O)c1ccc(NC(=O)c2cc(OC)c(OC)c(OC)c2)cc1 | 1.02 µM (active) | 2.34 µM (inactive) | 3.17 µM (inactive) | 3.44 µM (inactive) | 42.1 µM (inactive) | 39.4 µM (inactive) | 0.948 µM (active) | 0.236 µM (active) | 6.65 µM (inactive) | 3.73 µM (inactive) | 0.798 µM (active) | 4.28 µM (inactive) | 0.0279 µM (active) | 12.2 µM (inactive) | 2.71 µM (inactive) | 0.798 µM (active) | 7.6 µM (inactive) | 0.955 µM (active) | 0.8 µM (active) | 1.09 µM (active)
11 | O=c1[nH]nc(-c2ccccc2)n1/N=C/c1ccccc1Cl | 12 µM (inactive) | 75.9 µM (inactive) | 21.8 µM (inactive) | 30.1 µM (inactive) | 36.5 µM (inactive) | 25.4 µM (inactive) | 33.9 µM (inactive) | 38.5 µM (inactive) | 67.1 µM (inactive) | 28.1 µM (inactive) | 18 µM (inactive) | 35.4 µM (inactive) | 34.7 µM (inactive) | 39.1 µM (inactive) | 52.6 µM (inactive) | 52 µM (inactive) | 29.4 µM (inactive) | 50.7 µM (inactive) | 34 µM (inactive) | 20 µM (inactive)
12 | CSc1nc2nc(C)c(C)nc2c(=O)[nH]1 | > 100 µM (inactive) | > 100 µM (inactive) | > 100 µM (inactive) | > 100 µM (inactive) | > 100 µM (inactive) | > 100 µM (inactive) | > 100 µM (inactive) | > 100 µM (inactive) | > 100 µM (inactive) | > 100 µM (inactive) | > 100 µM (inactive) | > 100 µM (inactive) | > 100 µM (inactive) | > 100 µM (inactive) | > 100 µM (inactive) | > 100 µM (inactive) | > 100 µM (inactive) | > 100 µM (inactive) | > 100 µM (inactive) | > 100 µM (inactive)
13 | COc1c2c(nc3ccccc13)-c1cc3c(c(=O)n1C2)COC(=O)C3(O)CC(=O)N1CCOCC1 (stereo not given) | 17.1 µM (inactive) | 75 µM (inactive) | 44.1 µM (inactive) | 13.2 µM (inactive) | 1.35 µM (inactive) | 6.01 µM (inactive) | 6.55 µM (inactive) | 0.528 µM (active) | 9.25 µM (inactive) | 0.164 µM (active) | 26.8 µM (inactive) | 4.04 µM (inactive) | 1.75 µM (inactive) | 3.58 µM (inactive) | 3.13 µM (inactive) | 17 µM (inactive) | 1 µM (active) | 5.4 µM (inactive) | 3.59 µM (inactive) | 0.76 µM (active)
14 | C=C1COC(/C=C(\C)CC/C=C(\C)CCl)C1 (stereo not given) | > 100 µM (inactive) | > 100 µM (inactive) | > 100 µM (inactive) | > 100 µM (inactive) | > 100 µM (inactive) | > 100 µM (inactive) | > 100 µM (inactive) | > 100 µM (inactive) | 35.1 µM (inactive) | > 100 µM (inactive) | > 100 µM (inactive) | > 100 µM (inactive) | > 100 µM (inactive) | > 100 µM (inactive) | > 100 µM (inactive) | > 100 µM (inactive) | > 100 µM (inactive) | > 100 µM (inactive) | > 100 µM (inactive) | > 100 µM (inactive)
